Measurements as given in patent publication US8673908B2, “Kynurenine production inhibitor” (Kyowa Hakko Kirin Co., Ltd., priority 2008, dated 2014).

Test system: kynurenine production in IFN-γ-treated KATO-III cells
Assay: Inhibitory activity on kynurenine production (Test Example 1)
Format: cell-based
Conditions: Homo sapiens, IFN-γ treatment, culture for 96 hours, read-out: IC50 value, inhibition of kynurenine production
How it was run: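 Read-out is absorbance at 480 nm of medium treated with trichloroacetic acid, then p-dimethylaminobenzaldehyde, to quantify kynurenine. DMSO-only wells with and without IFN-γ serve as references. Cells were KATO-III, 2,000 per well, 96 h at 37 °C/5% CO2 with compound (DMSO ≤0.1%) and IFN-γ at 31.25 ng/mL in the added suspension.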

Compound | IC50 [µM]
CN1CCOc2cc(S(=O)(=O)Nc3nc4ccccc4nc3OC(c3cccnc3)C(F)(F)F)ccc21 (centres unmarked) [Compound 165, 4-methyl-N-{3-[2,2,2-trifluoro-1-(pyridin-3-yl)ethoxy]-quinoxalin-2-yl}-3,4-dihydro-2H-benzo[b][1,4]oxazine-7-sulfonamide] | < 1
O=S(=O)(Nc1nc2ccccc2nc1OC1(c2cccnc2)CCOCC1)c1ccccc1Cl [Compound 90, 2-chloro-N-{3-{[4-(pyridin-3-yl)tetrahydropyran-4-yl]oxy}-quinoxalin-2-yl}benzenesulfonamide] | < 1
N#Cc1ccc(C(Oc2nc3ccccc3nc2NS(=O)(=O)c2ccccc2Cl)C(F)(F)F)cn1 (centres unmarked) [Compound 54, 2-chloro-N-{3-[2,2,2-trifluoro-1-(6-cyanopyridin-3-yl)-ethoxy]quinoxalin-2-yl}benzenesulfonamide] | < 1
Nc1ccccc1S(=O)(=O)Nc1nc2ccccc2nc1OC(c1cccnc1)C(F)(F)F (centres unmarked) [Compound 157, 2-amino-N-{3-[2,2,2-trifluoro-1-(pyridin-3-yl)ethoxy]-quinoxalin-2-yl}benzenesulfonamide] | < 1
CCCS(=O)(=O)Nc1nc2ccccc2nc1O[C@@H](c1cnc(C)s1)C(F)(F)F [Compound 343, (R)—N-{3-[2,2,2-trifluoro-1-(2-methylthiazol-5-yl)ethoxy]-quinoxalin-2-yl}propane-1-sulfonamide] | 1 to 10
O=S(=O)(Nc1nc2ccccc2nc1OC(C1CCSCC1)C(F)(F)F)c1ccccc1Cl (centres unmarked) [Compound 267, 2-chloro-N-{3-[2,2,2-trifluoro-1-(tetrahydro-2H-thiopyran-4-yl)ethoxy]quinoxalin-2-yl}benzenesulfonamide] | < 1
Cc1nn(C)c(Cl)c1S(=O)(=O)Nc1nc2ccccc2nc1OC(c1cccnc1)C1(F)CCOCC1 (centres unmarked) [Compound 87, 5-chloro-1,3-dimethyl-N-{3-[4-fluorotetrahydropyran-4-yl-(pyridin-3-yl)methoxy]quinoxalin-2-yl}-1H-pyrazole-4-sulfonamide] | < 1
CCCS(=O)(=O)Nc1nc2ccccc2nc1OC(C(F)(F)F)C1(OC)CCOCC1 (centres unmarked) [Compound 353, N-{3-[2,2,2-trifluoro-1-(4-methoxytetrahydro-2H-pyran-4-yl)ethoxy]quinoxalin-2-yl}propane-1-sulfonamide] | < 1
O=S(=O)(Nc1nc2ccccc2nc1OC(c1cccs1)C(F)(F)F)c1cccc(Cl)c1Cl (centres unmarked) [Compound 100, 2,3-dichloro-N-{3-[2,2,2-trifluoro-1-(thiophen-2-yl)-ethoxy]quinoxalin-2-yl}benzenesulfonamide] | < 1
CCCS(=O)(=O)Nc1nc2ccccc2nc1OC(c1ccc(Cl)nc1)C(F)(F)F (centres unmarked) [Compound 278, N-{3-[1-(6-chloropyridin-3-yl)-2,2,2-trifluoroethoxy]-quinoxalin-2-yl}propane-1-sulfonamide] | < 1
O=S(=O)(Nc1nc2ccccc2nc1OC(c1cccnc1)C(F)(F)F)c1ccccc1OC(F)(F)F (centres unmarked) [Compound 151, N-{3-[2,2,2-trifluoro-1-(pyridin-3-yl)ethoxy]quinoxalin-2-yl}-2-(trifluoromethoxy)benzenesulfonamide] | < 1
CCC(C)S(=O)(=O)Nc1nc2ccccc2nc1OC(c1cccnc1)C(F)(F)F (centres unmarked) [Compound 187, N-{3-[2,2,2-trifluoro-1-(pyridin-3-yl)ethoxy]quinoxalin-2-yl}butane-2-sulfonamide] | < 1
CCCS(=O)(=O)Nc1nc2ccccc2nc1OC(C1CCN(C)CC1)C(F)(F)F (centres unmarked) [Compound 326, N-{3-[2,2,2-trifluoro-1-(1-methylpiperidin-4-yl)ethoxy]-quinoxalin-2-yl}propane-1-sulfonamide] | 1 to 10
COCCCS(=O)(=O)Nc1nc2ccccc2nc1OC(c1cccnc1)C(F)(F)F (centres unmarked) [Compound 301, 3-methoxy-N-{3-[2,2,2-trifluoro-1-(pyridin-3-yl)ethoxy]-quinoxalin-2-yl}propane-1-sulfonamide] | < 1
